From US20220281825A1 (priority 2016, published 2022)

What was measured:
in vitro = settings: African green monkey
LASV-p = assay: organism not typed; assay type: cell-based, Lassa (LASV); settings: Vero, 24 h, read-out: LASV-p EC50 (nM)
VSV-p = assay: microbe, parasite or virus in culture; assay type: cell-based; settings: Vesicular stomatitis virus, Vero, 24 h, read-out: VSV-p EC50 (nM)
JUNV-p = assay: organism not typed; assay type: cell-based, Junin (JUNV); settings: Vero, 24 h, read-out: JUNV-p EC50 (nM)
TCRV-p = assay: organism not typed; assay type: cell-based; settings: Vero, 24 h, read-out: TCRV-p EC50 (nM)
MACV-p = assay: organism not typed; assay type: cell-based, Machupo (MACV); settings: Vero, 24 h, read-out: MACV-p EC50 (nM)
GTOV-p = assay: organism not typed; assay type: cell-based, Guanarito (GTOV); settings: Vero, 24 h, read-out: GTOV-p EC50 (nM)
hERG channel = hERG channel (Homo sapiens, UniProt Q12809); settings: pH 7.4
[1] = 1 h, pH 7.4
[2] = guinea pig, 1 h, pH 7.4
[3] = 1 h, pH 7.4; remark: listed apart in the source

Chain of hERG channel (Q12809 whole entry): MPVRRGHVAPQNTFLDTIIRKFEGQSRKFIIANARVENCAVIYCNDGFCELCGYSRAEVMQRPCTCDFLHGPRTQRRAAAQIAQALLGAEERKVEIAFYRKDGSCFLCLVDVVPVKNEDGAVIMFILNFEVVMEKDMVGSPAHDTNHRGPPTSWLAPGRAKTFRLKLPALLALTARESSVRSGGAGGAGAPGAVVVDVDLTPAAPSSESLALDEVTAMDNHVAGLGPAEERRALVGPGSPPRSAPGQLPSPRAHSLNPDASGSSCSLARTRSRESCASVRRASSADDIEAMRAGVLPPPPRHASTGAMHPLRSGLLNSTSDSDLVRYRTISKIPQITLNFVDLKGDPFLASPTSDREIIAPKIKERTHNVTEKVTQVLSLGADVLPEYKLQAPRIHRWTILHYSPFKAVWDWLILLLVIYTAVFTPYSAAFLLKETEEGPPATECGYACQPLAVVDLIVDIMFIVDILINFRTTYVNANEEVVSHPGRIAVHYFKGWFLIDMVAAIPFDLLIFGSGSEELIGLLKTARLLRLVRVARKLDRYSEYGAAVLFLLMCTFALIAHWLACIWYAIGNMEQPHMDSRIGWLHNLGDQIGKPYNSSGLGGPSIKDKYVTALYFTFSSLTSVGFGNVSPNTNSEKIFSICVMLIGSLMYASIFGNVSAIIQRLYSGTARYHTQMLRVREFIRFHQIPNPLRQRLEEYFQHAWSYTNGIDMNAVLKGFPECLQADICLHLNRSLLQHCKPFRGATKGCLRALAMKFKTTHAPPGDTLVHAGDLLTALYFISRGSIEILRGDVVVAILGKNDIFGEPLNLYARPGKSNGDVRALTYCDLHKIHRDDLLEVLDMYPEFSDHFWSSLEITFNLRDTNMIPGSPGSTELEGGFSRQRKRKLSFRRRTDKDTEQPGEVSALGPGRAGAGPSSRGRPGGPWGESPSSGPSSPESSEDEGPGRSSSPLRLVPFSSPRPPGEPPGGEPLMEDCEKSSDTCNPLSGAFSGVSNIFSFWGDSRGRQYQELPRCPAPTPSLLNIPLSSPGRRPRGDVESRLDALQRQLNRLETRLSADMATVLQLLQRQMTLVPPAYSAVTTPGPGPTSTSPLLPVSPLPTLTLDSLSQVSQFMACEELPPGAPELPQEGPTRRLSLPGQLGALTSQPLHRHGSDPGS

For `COc1ccc(-n2cnc3ccc(-c4ccc(N(C)C)cc4)cc32)cc1` [Example A7, 4-[1-(4-methoxyphenyl)-1H-1,3-benzodiazol-6-yl]-N,N-dimethylaniline], the CC50 (in vitro) was 3960 nM, the EC50 (LASV-p) was 8.9 nM and the EC50 (VSV-p) was 980 nM. For the same compound, the EC50 (JUNV-p) was 1.8 nM, the EC50 (TCRV-p) was greater than 25 nM and the EC50 (MACV-p) was 17 nM.
`COc1ccc(-n2cnc3ccc(-c4ccc(C(C)(C)O)cc4)cc32)cc1` [Example A8, 2-{4-[1-(4-methoxyphenyl)-1H-1,3-benzodiazol-6-yl]phenyl}propan-2-ol] gave a CC50 (in vitro) of 9540 nM, an EC50 (LASV-p) of 6.4 nM and an EC50 (VSV-p) greater than 1000 nM. It also gave an EC50 (JUNV-p) of 3.98 nM, an EC50 (TCRV-p) of 21.7 nM and an EC50 (MACV-p) of 22.3 nM.
Work on `COc1ccc(-n2cnc3ccc(-c4ccc5[nH]ccc5c4)cc32)cc1` [Example A12, 6-(1H-indol-5-yl)-1-(4-methoxyphenyl)-1H-1,3-benzodiazole] yielded a CC50 (in vitro) of 200 nM, an EC50 (LASV-p) of 0.81 nM and an EC50 (VSV-p) of 800 nM. The EC50 (JUNV-p) was 19.3 nM, the EC50 (TCRV-p) was 21.4 nM and the EC50 (MACV-p) was greater than 25 nM.
In the case of `COc1ccc(-n2cnc3ccc(-c4ccc(N5CCOCC5)cc4)cc32)cc1` [Example A16, 1-(4-methoxyphenyl)-6-[4-(morpholin-4-yl)phenyl]-1H-1,3-benzodiazole], the CC50 (in vitro) was greater than 100000 nM, the EC50 (LASV-p) was 17.2 nM and the EC50 (VSV-p) was greater than 1000 nM. For the same compound, the EC50 (JUNV-p) was 15.3 nM, the EC50 (TCRV-p) was greater than 25 nM and the EC50 (MACV-p) was greater than 25 nM.
For `CC(C)Oc1ccc(-n2cnc3ccc(-c4ccc(N(C)C)cc4)cc32)cc1` [Example A18, N,N-dimethyl-4-{1-[4-(propan-2-yloxy)phenyl]-1H-1,3-benzodiazol-6-yl}aniline], the CC50 (in vitro) was 14000 nM, the EC50 (GTOV-p) was 0.07 nM and the EC50 (LASV-p) was 1.08 nM. The EC50 (VSV-p) was greater than 1000 nM, the EC50 (JUNV-p) was 1.55 nM and the EC50 (TCRV-p) was 12.5 nM. It also gave an EC50 (MACV-p) of 2.27 nM.
`Cc1cc2ncn(-c3ccc(OC(C)C)cc3)c2cc1-c1ccc(OC(C)C)cc1` [Example A30, 5-methyl-1,6-bis[4-(propan-2-yloxy)phenyl]-1H-1,3-benzodiazole] showed a CC50 (in vitro) of 3670 nM, an EC50 (GTOV-p) of 0.21 nM and an EC50 (LASV-p) of 0.53 nM. For the same compound, the “hERG % Inhibition” value (hERG channel) was less than 10%, the EC50 (VSV-p) was 5310 nM and the EC50 (JUNV-p) was 0.03 nM. For the same compound, the EC50 (TCRV-p) was 0.07 nM and the EC50 (MACV-p) was 0.21 nM.
With `COc1cc2ncn(-c3ccc(OC(C)C)cc3)c2cc1-c1ccc(OC(C)C)cc1` [Example A31, 5-methoxy-1,6-bis[4-(propan-2-yloxy)phenyl]-1H-1,3-benzodiazole] the “Percent parent compound remaining at 60 minutes in liver microsomes, Monkey” value [1] was 40%, the CC50 (in vitro) was 3790 nM and the EC50 (LASV-p) was 2.6 nM. The “hERG % Inhibition” value (hERG channel) was less than 10%, the EC50 (JUNV-p) was 0.18 nM and the EC50 (TCRV-p) was 0.7 nM. The EC50 (MACV-p) was 0.9 nM, the “Percent parent compound remaining at 60 minutes in liver microsomes, Guinea” value [2] was 100% and the “Percent parent compound remaining at 60 minutes in liver microsomes, Human” value [3] was 93%.
Compound `CC(C)Oc1ccc(-n2cnc3ccc(-c4ccc(C(C)(C)O)cc4)nc32)cc1` [Example B1, 2-(4-{3-[4-(propan-2-yloxy)phenyl]-3H-imidazo[4,5-b]pyridin-5-yl}phenyl)propan-2-ol] has a CC50 (in vitro) of 12200 nM, an EC50 (GTOV-p) of 0.88 nM and an EC50 (LASV-p) of 1.61 nM. The EC50 (VSV-p) was greater than 1000 nM, the EC50 (JUNV-p) was 4.95 nM and the EC50 (TCRV-p) was 28 nM. For the same compound, the EC50 (MACV-p) was 7.09 nM.
With `CC(C)Oc1ccc(-c2ccc3ncn(-c4ccc(OC(C)C)cc4)c3n2)cc1` [Example B2, 3,5-bis[4-(propan-2-yloxy)phenyl]-3H-imidazo[4,5-b]pyridine] the “hERG % Inhibition” value (hERG channel) was less than 10%.
In the case of `CC(C)Oc1ccc(-c2ccc3nnn(-c4ccc(OC(C)C)cc4)c3c2)cc1` [Example B12, 1,6-bis[4-(propan-2-yloxy)phenyl]-1H-1,2,3-benzotriazole], the “hERG % Inhibition” value (hERG channel) was 17%.
With `CC(C)Oc1ccc(-n2nnc3ccc(-c4ccc5[nH]ccc5c4)cc32)cc1` [Example B13, 6-(1H-indol-5-yl)-1-[4-(propan-2-yloxy)phenyl]-1H-1,2,3-benzotriazole] the CC50 (in vitro) was 6620 nM, the EC50 (GTOV-p) was 1.24 nM and the EC50 (LASV-p) was 1.53 nM. The EC50 (VSV-p) was 5360 nM, the EC50 (JUNV-p) was 1.8 nM and the EC50 (TCRV-p) was 20.4 nM. It also gave an EC50 (MACV-p) of 5.58 nM.
`Cc1cc2nnn(-c3ccc(OC(C)C)cc3)c2cc1-c1ccc(OC(C)C)cc1` [Example B15, 5-methyl-1,6-bis[4-(propan-2-yloxy)phenyl]-1H-1,2,3-benzotriazole] gave a CC50 (in vitro) greater than 100000 nM, an EC50 (GTOV-p) of 0.18 nM and an EC50 (LASV-p) of 0.95 nM. For the same compound, the “hERG % Inhibition” value (hERG channel) was less than 10%, the EC50 (VSV-p) was greater than 10000 nM and the EC50 (JUNV-p) was 0.02 nM. It also gave an EC50 (TCRV-p) of 0.37 nM and an EC50 (MACV-p) of 0.25 nM.
With `CC(C)Oc1ccc(-c2cnc3ccc(-c4ccc(C5(O)CCC5)cc4)cn23)cc1` [Example C9, 1-(4-{3-[4-(propan-2-yloxy)phenyl]imidazo[1,2-a]pyridin-6-yl}phenyl)cyclobutan-1-ol] the CC50 (in vitro) was 3970 nM, the EC50 (GTOV-p) was 0.27 nM and the EC50 (LASV-p) was 1.15 nM. It also gave an EC50 (VSV-p) of 5810 nM, an EC50 (JUNV-p) of 0.45 nM and an EC50 (TCRV-p) of 1.7 nM. The EC50 (MACV-p) was 0.71 nM.
`CC(C)Oc1ccc(-c2cnc3ccc(-c4ccc5cc[nH]c5c4)cn23)cc1` [Example C11, 6-{3-[4-(propan-2-yloxy)phenyl]imidazo[1,2-a]pyridin-6-yl}-1H-indole] gave a CC50 (in vitro) of 25200 nM, an EC50 (GTOV-p) of 0.86 nM and an EC50 (LASV-p) of 2.83 nM. The EC50 (VSV-p) was 3090 nM, the EC50 (JUNV-p) was 3.21 nM and the EC50 (TCRV-p) was 18.4 nM. The EC50 (MACV-p) was 10 nM.
In the case of `CC(C)Oc1ccc(-c2cnc3ccc(-c4ccc(OC(C)C)c(F)c4)cn23)cc1` [Example C24, 6-[3-fluoro-4-(propan-2-yloxy)phenyl]-3-[4-(propan-2-yloxy)phenyl]imidazo[1,2-a]pyridine], the CC50 (in vitro) was 4180 nM, the EC50 (GTOV-p) was 0.15 nM and the EC50 (LASV-p) was 4.58 nM. The EC50 (VSV-p) was 9810 nM, the EC50 (JUNV-p) was 0.416 nM and the EC50 (TCRV-p) was 3.91 nM. It also gave an EC50 (MACV-p) of 0.875 nM.
Work on `CC(C)Oc1ccc(-c2cnc3ccc(-c4ccc(C5(O)CC5)cc4)cn23)cc1` [Example C27, 1-(4-{3-[4-(propan-2-yloxy)phenyl]imidazo[1,2-a]pyridin-6-yl}phenyl)cyclopropan-1-ol] yielded a CC50 (in vitro) of 5280 nM, an EC50 (GTOV-p) of 0.24 nM and an EC50 (LASV-p) of 0.66 nM. The EC50 (VSV-p) was greater than 10000 nM, the EC50 (JUNV-p) was 0.51 nM and the EC50 (TCRV-p) was 0.58 nM. It also gave an EC50 (MACV-p) of 0.68 nM.
Compound `CC(C)Oc1ccc(-c2ccc3ncc(-c4ccc(C5CC5)cc4)n3c2)cc1` [Example C30, 3-(4-cyclopropylphenyl)-6-[4-(propan-2-yloxy)phenyl]imidazo[1,2-a]pyridine] has a CC50 (in vitro) of 3980 nM, an EC50 (GTOV-p) of 0.05 nM and an EC50 (LASV-p) of 1.02 nM. The EC50 (VSV-p) was 6960 nM, the EC50 (JUNV-p) was 0.82 nM and the EC50 (TCRV-p) was 3.83 nM. The EC50 (MACV-p) was 1.08 nM.
In the case of `CC(C)Oc1ccc(-c2ccc3ncc(-c4ccc(OCC5CC5)cc4)n3c2)cc1` [Example C33, 3-[4-(cyclopropylmethoxy)phenyl]-6-[4-(propan-2-yloxy)phenyl]imidazo[1,2a]pyridine], the CC50 (in vitro) was 4770 nM, the EC50 (GTOV-p) was 0.91 nM and the EC50 (LASV-p) was 1.3 nM. It also gave an EC50 (VSV-p) of 4770 nM, an EC50 (JUNV-p) of 2.3 nM and an EC50 (TCRV-p) of 6.57 nM. The EC50 (MACV-p) was 5.31 nM.
In the case of `CC(C)Oc1ccc(-c2ccc3ncc(-c4ccc(OC(F)F)cc4)n3c2)cc1` [Example C40, 3-[4-(difluoromethoxy)phenyl]-6-[4-(propan-2-yloxy)phenyl]imidazo[1,2a]pyridine], the CC50 (in vitro) was 4110 nM, the EC50 (GTOV-p) was 1.35 nM and the EC50 (LASV-p) was 3.83 nM. It also gave an EC50 (VSV-p) of 6170 nM, an EC50 (JUNV-p) of 0.97 nM and an EC50 (TCRV-p) of 22.6 nM. For the same compound, the EC50 (MACV-p) was 5.85 nM.
For `c1cc(-c2ccc3ncc(-c4ccc(OC5CC5)cc4)n3c2)ccc1OC1CC1` [Example C46, 3,6-bis(4-cyclopropoxyphenyl)imidazo[1,2-a]pyridine], the CC50 (in vitro) was 4610 nM, the EC50 (GTOV-p) was 1.26 nM and the EC50 (LASV-p) was 7.23 nM. For the same compound, the EC50 (VSV-p) was 4550 nM, the EC50 (JUNV-p) was 4.42 nM and the EC50 (TCRV-p) was 22.5 nM. The EC50 (MACV-p) was 8.47 nM.
`OC1(c2ccc(-c3ccc4ncc(-c5ccc(C6(O)CCC6)cc5)n4c3)cc2)CCC1` [Example C47, 1-(4-{3-[4-(1-hydroxycyclobutyl)phenyl]imidazo[1,2-a]pyridin-6-yl}phenyl)cyclobutan-1-ol] gave a CC50 (in vitro) of 7860 nM, an EC50 (GTOV-p) of 0.44 nM and an EC50 (LASV-p) of 1.8 nM. For the same compound, the EC50 (VSV-p) was 4340 nM, the EC50 (JUNV-p) was 0.55 nM and the EC50 (TCRV-p) was 1.17 nM. For the same compound, the EC50 (MACV-p) was 0.5 nM.
Compound `CC(C)Oc1ccc(-c2cnc3ncc(-c4ccc5[nH]ccc5c4)n3c2)cc1` [Example D16, 5-{6-[4-(propan-2-yloxy)phenyl]imidazo[1,2-a]pyrimidin-3-yl}-1H-indole] has a CC50 (in vitro) of 7530 nM, an EC50 (GTOV-p) of 3.52 nM and an EC50 (LASV-p) of 5.37 nM. For the same compound, the EC50 (JUNV-p) was 1.05 nM, the EC50 (TCRV-p) was 19.9 nM and the EC50 (MACV-p) was 19.1 nM.
